Results as given in US9096624B2 (OSI Pharmaceuticals, LLC, priority 2009, dated 2015).

What was measured:
[1] = target: T1, FAK (Homo sapiens, UniProt Q05397); assay: Cell-based capture ELISA for inhibition of FAK autophosphorylation [pY397] in MiaPaCa2 cells
Procedure: Cell-Based Assays for Inhibition of FAK Autophosphorylation: MiaPaCa2 and U87MG
ELISA kit from Invitrogen (KHO0441).
Reagents Provided in Biosource FAK [pY397]
The cells were then suspended in cell assay medium.

[2] = target: T1, FAK; assay: biochemical
[3] = MIA-PaCa2 cells, + 50% mouse plasma (Table 3), read-out: Mean FAK Cell Mechanistic IC50 + 50% mP MIA-PaCa2
[4] = MIA-PaCa2 cells on fibronectin, 2 h, no plasma, read-out: Mean FAK Cell Mechanistic IC50 MIA-PaCa2
[5] = MIA-PaCa2 cells, + 50% human plasma, read-out: Mean FAK Cell Mechanistic IC50 + 50% hP MIA-PaCa2
[6] = MIA-PaCa2 cells, + 50% mouse plasma (Table 2), read-out: Mean FAK Cell Mechanistic IC50 + 50% mP MIA-PaCa2

T1 sequence (Q05397 whole entry): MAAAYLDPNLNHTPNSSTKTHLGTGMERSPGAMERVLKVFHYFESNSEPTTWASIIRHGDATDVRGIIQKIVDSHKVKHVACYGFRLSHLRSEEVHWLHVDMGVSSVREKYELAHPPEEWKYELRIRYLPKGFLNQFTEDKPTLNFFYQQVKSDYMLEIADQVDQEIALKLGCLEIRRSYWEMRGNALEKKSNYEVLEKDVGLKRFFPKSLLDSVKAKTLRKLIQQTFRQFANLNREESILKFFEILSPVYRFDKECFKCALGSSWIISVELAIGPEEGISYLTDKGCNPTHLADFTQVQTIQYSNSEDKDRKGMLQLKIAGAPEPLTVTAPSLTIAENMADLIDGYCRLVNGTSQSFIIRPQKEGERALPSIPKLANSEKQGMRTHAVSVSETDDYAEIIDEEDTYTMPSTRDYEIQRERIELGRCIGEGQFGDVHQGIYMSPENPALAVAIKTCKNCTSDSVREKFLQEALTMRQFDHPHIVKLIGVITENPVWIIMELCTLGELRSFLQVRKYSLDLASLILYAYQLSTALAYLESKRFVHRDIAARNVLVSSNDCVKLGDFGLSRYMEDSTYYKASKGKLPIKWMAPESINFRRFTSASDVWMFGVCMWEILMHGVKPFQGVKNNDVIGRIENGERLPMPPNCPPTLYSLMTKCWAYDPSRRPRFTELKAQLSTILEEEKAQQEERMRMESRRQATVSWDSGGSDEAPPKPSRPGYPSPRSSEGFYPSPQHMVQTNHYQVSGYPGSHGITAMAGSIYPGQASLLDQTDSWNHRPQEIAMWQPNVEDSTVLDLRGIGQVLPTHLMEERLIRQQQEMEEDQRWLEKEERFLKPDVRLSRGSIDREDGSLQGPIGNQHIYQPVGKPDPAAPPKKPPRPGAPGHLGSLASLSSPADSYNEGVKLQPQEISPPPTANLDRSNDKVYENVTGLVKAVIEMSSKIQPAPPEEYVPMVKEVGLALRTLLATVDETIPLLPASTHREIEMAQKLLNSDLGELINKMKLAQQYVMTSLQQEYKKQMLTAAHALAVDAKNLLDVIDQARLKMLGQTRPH

With `CCOP(=O)(Cc1ccc(Nc2ncc(C(F)(F)F)c(Nc3ccc(-c4cnn(C)c4)cc3C(=O)NC)n2)cc1)OCC` [Example 125, Diethyl (4-{[4-{[2-(methylcarbamoyl)-4-(1-methyl-1H-pyrazol-4-yl)phenyl]amino}-5-(trifluoromethyl)pyrimidin-2-yl]amino}benzyl)phosphonate] the IC50 [1, 3] was under 1 µM and the IC50 [2] was under 1 µM.
Compound `CNC(=O)c1ccccc1Nc1nc(Nc2ccc(P(C)(C)=O)cc2)ncc1C(F)(F)F` [Example 18, 2-{[2-{[4-(Dimethylphosphoryl)phenyl]amino}-5-(trifluoromethyl)pyrimidin-4-yl]amino}-N-methylbenzamide] has an IC50 [1, 4] of under 1 µM, an IC50 [1, 5] of under 1 µM and an IC50 [1, 6] of under 1 µM. It also gave an IC50 [2] of under 1 µM.
Compound `CCOP(=O)(Cc1ccc(Nc2ncc(C(F)(F)F)c(Nc3ccc(-c4cnn(CCO)c4)c4c3C(=O)N(C)C4)n2)c(OC)c1)OCC` [Example 69, Diethyl (4-{[4-({7-[1-(2-hydroxyethyl)-1H-pyrazol-4-yl]-2-methyl-3-oxo-2,3-dihydro-1H-isoindol-4-yl}amino)-5-(trifluoromethyl)pyrimidin-2-yl]amino}-3-methoxybenzyl)phosphonate] has an IC50 [1, 4] of under 1 µM, an IC50 [1, 5] of under 1 µM and an IC50 [2] of under 1 µM.
For `CCOP(=O)(Cc1ccc(Nc2ncc(C(F)(F)F)c(Nc3ccc([C@H]4CC[C@H](N5CCN(C(C)=O)CC5)CC4)c4c3C(=O)N(C)C4)n2)c(OC)c1)OCC` [Example 238, diethyl (4-{[4-({7-[trans-4-(4-acetylpiperazin-1-yl)cyclohexyl]-2-methyl-3-oxo-2,3-dihydro-1H-isoindol-4-yl}amino)-5-(trifluoromethyl)pyrimidin-2-yl]amino}-3-methoxybenzyl)phosphonate], the IC50 [1, 3] was under 1 µM and the IC50 [2] was under 1 µM.
`CCOP(=O)(Cc1ccc(Nc2ncc(C(F)(F)F)c(Nc3ccc(N4CCN(C(C)=O)CC4)c4c3C(=O)N(C)C4)n2)cc1)OCC` [Example 199, Diethyl (4-{[4-{[7-(4-acetylpiperazin-1-yl)-2-methyl-3-oxo-2,3-dihydro-1H-isoindol-4-yl]amino}-5-(trifluoromethyl)pyrimidin-2-yl]amino}benzyl)phosphonate] was tested, and the IC50 [1, 3] was under 1 µM and the IC50 [2] was under 1 µM.
`CCOP(=O)(Cc1ccc(Nc2ncc(C(F)(F)F)c(Nc3ccc(-c4cnn(CC(C)(C)O)c4)c4c3C(=O)N(C)C4)n2)c(OC)c1)OCC` [Example 98, Diethyl (4-{[4-({7-[1-(2-hydroxy-2-methylpropyl)-1H-pyrazol-4-yl]-2-methyl-3-oxo-2,3-dihydro-1H-isoindol-4-yl}amino)-5-(trifluoromethyl)pyrimidin-2-yl]amino}-3-methoxybenzyl)phosphonate] was tested, and the IC50 ([1]; read-out: Mean FAK Cell Mechanistic IC50 + 50% mP MIA-PaCa2, MIA-PaCa2 cells, + 50% mouse plasma (Table 3)) was under 1 µM.
`CCOP(=O)(Cc1ccc(Nc2ncc(C(F)(F)F)c(Nc3ccc([C@H]4CC[C@@H](N5CCN(C(C)=O)CC5)CC4)c4c3C(=O)N(C)C4)n2)c(OC)c1)OCC` [Example 237, Diethyl (4-{[4-({7-[cis-4-(4-acetylpiperazin-1-yl)cyclohexyl]-2-methyl-3-oxo-2,3-dihydro-1H-isoindol-4-yl}amino)-5-(trifluoromethyl)pyrimidin-2-yl]amino}-3-methoxybenzyl)phosphonate] showed an IC50 [1, 3] of under 1 µM.
With `CCOP(=O)(Cc1ccc(Nc2ncc(C(F)(F)F)c(Nc3ccc(C4=CCN(C(N)=O)CC4)c4c3C(=O)N(C)C4)n2)c(OC)c1)OCC` [Example 99, Diethyl (4-{[4-{[7-(1-carbamoyl-1,2,3,6-tetrahydropyridin-4-yl)-2-methyl-3-oxo-2,3-dihydro-1H-isoindol-4-yl]amino}-5-(trifluoromethyl)pyrimidin-2-yl]amino}-3-methoxybenzyl)phosphonate] the IC50 [1, 3] was under 1 µM.
`CCOP(=O)(Cc1ccc(Nc2ncc(C(F)(F)F)c(Nc3ccc(-c4cnn(C5CC(O)C5)c4)c4c3C(=O)N(C)C4)n2)c(OC)c1)OCC` (stereo not shown) [Example 74, Diethyl (4-{[4-({7-[1-(3-hydroxycyclobutyl)-1H-pyrazol-4-yl]-2-methyl-3-oxo-2,3-dihydro-1H-isoindol-4-yl}amino)-5-(trifluoromethyl)pyrimidin-2-yl]amino}-3-methoxybenzyl)phosphonate] was tested, and the IC50 [1, 6] was under 1 µM.
`CCNC(=O)c1ccccc1Nc1nc(Nc2ccc(CP(=O)(OCC)OCC)cc2OC)ncc1C(F)(F)F` [Example 153, Diethyl (4-{[4-{[2-(ethylcarbamoyl)phenyl]amino}-5-(trifluoromethyl)pyrimidin-2-yl]amino}-3-methoxybenzyl)phosphonate] showed an IC50 [2] of under 1 µM.
In the case of `CCOP(=O)(Cc1ccc(Nc2ncc(C(F)(F)F)c(Nc3ccc([C@H]4CC[C@H](O)CC4)c4c3C(=O)N(C)C4)n2)cc1)OCC` [Example 91, Diethyl (4-{[4-{[7-(trans-4-hydroxycyclohexyl)-2-methyl-3-oxo-2,3-dihydro-1H-isoindol-4-yl]amino}-5-(trifluoromethyl)pyrimidin-2-yl]amino}benzyl)phosphonate], the IC50 [2] is reported as under 1 µM.
`CCOP(=O)(Cc1ccc(Nc2ncc(C(F)(F)F)c(Nc3ccc(-c4cnn(CCOC)c4)c4c3C(=O)N(C)C4)n2)cc1)OCC` [Example 97, Diethyl (4-{[4-({7-[1-(2-methoxyethyl)-1H-pyrazol-4-yl]-2-methyl-3-oxo-2,3-dihydro-1H-isoindol-4-yl}amino)-5-(trifluoromethyl)pyrimidin-2-yl]amino}benzyl)phosphonate] gave an IC50 [2] of under 1 µM.
`CCOP(=O)(Cc1ccc(Nc2ncc(C(F)(F)F)c(Nc3ccc(N4CCOCC4)c4c3C(=O)N(C)C4)n2)c(OC)c1)OCC` [Example 215, Diethyl (3-methoxy-4-{[4-{[2-methyl-7-(morpholin-4-yl)-3-oxo-2,3-dihydro-1H-isoindol-4-yl]amino}-5-(trifluoromethyl)pyrimidin-2-yl]amino}benzyl)phosphonate] showed an IC50 [2] of under 1 µM.
`CCOP(=O)(Cc1ccc(Nc2ncc(C(F)(F)F)c(Nc3ccc([C@H]4CC[C@@H](N5CCN(C)CC5)CC4)c4c3C(=O)N(C)C4)n2)c(OC)c1)OCC` [Example 95, Diethyl (3-methoxy-4-{[4-({2-methyl-7-[cis-4-(4-methylpiperazin-1-yl)cyclohexyl]-3-oxo-2,3-dihydro-1H-isoindol-4-yl}amino)-5-(trifluoromethyl)pyrimidin-2-yl]amino}benzyl)phosphonate] was tested, and the IC50 [2] was under 1 µM.
`CCOP(=O)(Cc1ccc(Nc2ncc(C(F)(F)F)c(Nc3ccc([C@H]4CC[C@H](OP(=O)(O)O)CC4)c4c3C(=O)N(C)C4)n2)c(OC)c1)OCC` [Example 228, Diethyl (3-methoxy-4-{[4-({2-methyl-3-oxo-7-[trans-4-(phosphonooxy)cyclohexyl]-2,3-dihydro-1H-isoindol-4-yl}amino)-5-(trifluoromethyl)pyrimidin-2-yl]amino}benzyl)phosphonate] gave an IC50 [2] of under 1 µM.
Compound `CN1Cc2c(c(Nc3nc(Nc4ccc(CP5(=O)OCCCO5)cc4)ncc3C(F)(F)F)ccc2[C@H]2CC[C@H](O)CC2)C1=O` [compound 230] has an IC50 [1, 3] of under 1 µM.
`CCOP(=O)(Cc1ccc(Nc2ncc(C(F)(F)F)c(Nc3ccc(N4CCS(=O)(=O)CC4)c4c3C(=O)N(C)C4)n2)cc1)OCC` [Example 212, Diethyl (4-{[4-{[7-(1,1-dioxidothiomorpholin-4-yl)-2-methyl-3-oxo-2,3-dihydro-1H-isoindol-4-yl]amino}-5-(trifluoromethyl)pyrimidin-2-yl]amino}benzyl)phosphonate] was tested, and the IC50 [2] was under 1 µM.
`CCOC(c1ccc(Nc2ncc(C(F)(F)F)c(Nc3ccccc3C(=O)NC)n2)cc1)P(=O)(OCC)OCC` (stereo not shown) [Example 159, Diethyl [ethoxy(4-{[4-{[2-(methylcarbamoyl)phenyl]amino}-5-(trifluoromethyl)pyrimidin-2-yl]amino}phenyl)methyl]phosphonate] showed an IC50 [2] of under 1 µM.
In the case of `CCOP(=O)(O)Cc1ccc(Nc2ncc(C(F)(F)F)c(Nc3ccc(N4CCN(C)CC4)c4c3C(=O)N(C)C4)n2)c(OC)c1` [Example 254, Ethyl hydrogen (3-methoxy-4-{[4-{[2-methyl-7-(4-methylpiperazin-1-yl)-3-oxo-2,3-dihydro-1H-isoindol-4-yl]amino}-5-(trifluoromethyl)pyrimidin-2-yl]amino}benzyl)phosphonate], the IC50 [2] is reported as under 1 µM.
`CCOP(=O)(Cc1ccc(Nc2ncc(C(F)(F)F)c(Nc3ccccc3C(=O)N(C)C)n2)cc1)OCC` [Example 111, Diethyl (4-{[4-{[2-(dimethylcarbamoyl)phenyl]amino}-5-(trifluoromethyl)pyrimidin-2-yl]amino}benzyl)phosphonate] gave an IC50 [2] of under 1 µM.
`CCOP(=O)(Cc1cc(F)c(Nc2ncc(C(F)(F)F)c(Nc3ccccc3C(=O)NC)n2)c(OC)c1)OCC` [Example 146, Diethyl (3-fluoro-5-methoxy-4-{[4-{[2-(methylcarbamoyl)phenyl]amino}-5-(trifluoromethyl)pyrimidin-2-yl]amino}benzyl)phosphonate] gave an IC50 [2] of under 1 µM.
In the case of `CCOP(=O)(Cc1ccc(Nc2ncc(C(F)(F)F)c(Nc3ccc(OC(C)C)c4c3C(=O)N(C)C4)n2)c(OC)c1)OCC` [Example 211, Diethyl (3-methoxy-4-{[4-{[2-methyl-3-oxo-7-(propan-2-yloxy)-2,3-dihydro-1H-isoindol-4-yl]amino}-5-(trifluoromethyl)pyrimidin-2-yl]amino}benzyl)phosphonate], the IC50 [2] is reported as under 1 µM.
`CCOP(=O)(Cc1ccc(Nc2ncc(C(F)(F)F)c(Nc3ccc(C#N)c4c3C(=O)N(C)C4)n2)c(OC)c1)OCC` [Example 162, Diethyl [4-({4-[(7-cyano-2-methyl-3-oxo-2,3-dihydro-1H-isoindol-4-yl)amino]-5-(trifluoromethyl)pyrimidin-2-yl}amino)-3-methoxybenzyl]phosphonate] showed an IC50 [2] of under 1 µM.
